Experimental data published in ChEMBL document CHEMBL1201862, “PubChem BioAssay data set” (2004).
Active and inactive are the calls of the source.

How the values were obtained:
[1] = HEp-2 cell cytotoxicity, dose response, cytotoxicity control for RSV inhibitor project, HTS (AID 2410); assay type: functional; conditions: human respiratory syncytial virus
[2] = molecular target: Peroxisome proliferator-activated receptor gamma/Nuclear receptor coactivator 2 (Homo sapiens, UniProt P37231); assay type: functional;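 note: agonist potency for raising coactivator recruitment to the receptor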
[3] = molecular target: Peroxisome proliferator-activated receptor gamma/Nuclear receptor coactivator 1 (Homo sapiens, UniProt P37231); assay type: functional;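 note: agonist potency as compounds enhance coactivator SRC-1 recruitment to PPARgamma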
Aminopeptidase N = molecular target: T1, Aminopeptidase N (Plasmodium falciparum FcB1/Columbia, UniProt O96935); experiment: P. falciparum M1AAP inhibitors, biochemical, fluorogenic H-Leu-NHMec substrate, 1536-well (AID 1445); design: species or system Plasmodium falciparum 3D7, 3D7
T1 sequence (O96935 whole entry): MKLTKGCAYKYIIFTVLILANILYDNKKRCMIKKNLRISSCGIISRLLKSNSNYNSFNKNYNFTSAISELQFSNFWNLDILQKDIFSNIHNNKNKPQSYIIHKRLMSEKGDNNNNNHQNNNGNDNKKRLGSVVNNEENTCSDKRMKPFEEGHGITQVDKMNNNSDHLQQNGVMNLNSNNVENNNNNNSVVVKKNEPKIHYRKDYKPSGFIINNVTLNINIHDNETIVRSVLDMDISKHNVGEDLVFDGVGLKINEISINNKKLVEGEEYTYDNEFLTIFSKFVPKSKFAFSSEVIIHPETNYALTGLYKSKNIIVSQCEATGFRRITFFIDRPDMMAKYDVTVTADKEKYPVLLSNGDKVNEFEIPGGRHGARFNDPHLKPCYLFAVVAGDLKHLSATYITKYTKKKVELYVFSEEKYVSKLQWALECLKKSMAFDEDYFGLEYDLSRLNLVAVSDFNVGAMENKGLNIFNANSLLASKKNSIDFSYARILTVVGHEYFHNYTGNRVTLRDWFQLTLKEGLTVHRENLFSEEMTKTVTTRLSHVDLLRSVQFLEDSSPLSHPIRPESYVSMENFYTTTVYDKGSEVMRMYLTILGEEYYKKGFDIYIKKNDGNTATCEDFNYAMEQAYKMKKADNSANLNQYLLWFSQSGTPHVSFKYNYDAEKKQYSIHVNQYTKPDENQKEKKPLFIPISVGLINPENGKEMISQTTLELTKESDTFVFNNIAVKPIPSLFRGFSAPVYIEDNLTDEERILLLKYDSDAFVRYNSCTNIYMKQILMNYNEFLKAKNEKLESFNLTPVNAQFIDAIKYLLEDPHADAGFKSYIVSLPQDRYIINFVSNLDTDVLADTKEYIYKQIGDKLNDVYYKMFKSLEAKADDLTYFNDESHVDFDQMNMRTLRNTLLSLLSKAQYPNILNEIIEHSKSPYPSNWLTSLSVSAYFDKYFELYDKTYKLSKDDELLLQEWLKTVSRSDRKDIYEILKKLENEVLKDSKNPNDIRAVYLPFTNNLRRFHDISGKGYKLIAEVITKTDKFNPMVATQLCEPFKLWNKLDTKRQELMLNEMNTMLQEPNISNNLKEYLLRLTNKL

[4] = molecular target: Peroxisome proliferator-activated receptor gamma/Nuclear receptor coactivator 3 (Homo sapiens, UniProt P37231); assay type: functional;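 note: agonist potency for raising coactivator recruitment to the receptor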
cells [5] = experiment: cells
Troponin, cardiac muscle = Troponin, cardiac muscle (Homo sapiens, UniProt P19429+P45379+P63316); experiment: Fluorescence-based biochemical high throughput dose response assay for activators of the calcium sensitivity of cardiac Regulated Thin Filaments (RTF). [Related pubchem assays (depositor defined):AID493008, AID493018, AID504382, AID504383]; assay type: protein-complex assay
[6] = molecular target: Voltage-dependent T-type calcium channel subunit alpha-1H (Homo sapiens, UniProt O95180); assay type: functional;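 note: channel activity triggered by adding a high calcium stimulation buffer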
Sequence of Voltage-dependent T-type calcium channel subunit alpha-1H (O95180 whole entry): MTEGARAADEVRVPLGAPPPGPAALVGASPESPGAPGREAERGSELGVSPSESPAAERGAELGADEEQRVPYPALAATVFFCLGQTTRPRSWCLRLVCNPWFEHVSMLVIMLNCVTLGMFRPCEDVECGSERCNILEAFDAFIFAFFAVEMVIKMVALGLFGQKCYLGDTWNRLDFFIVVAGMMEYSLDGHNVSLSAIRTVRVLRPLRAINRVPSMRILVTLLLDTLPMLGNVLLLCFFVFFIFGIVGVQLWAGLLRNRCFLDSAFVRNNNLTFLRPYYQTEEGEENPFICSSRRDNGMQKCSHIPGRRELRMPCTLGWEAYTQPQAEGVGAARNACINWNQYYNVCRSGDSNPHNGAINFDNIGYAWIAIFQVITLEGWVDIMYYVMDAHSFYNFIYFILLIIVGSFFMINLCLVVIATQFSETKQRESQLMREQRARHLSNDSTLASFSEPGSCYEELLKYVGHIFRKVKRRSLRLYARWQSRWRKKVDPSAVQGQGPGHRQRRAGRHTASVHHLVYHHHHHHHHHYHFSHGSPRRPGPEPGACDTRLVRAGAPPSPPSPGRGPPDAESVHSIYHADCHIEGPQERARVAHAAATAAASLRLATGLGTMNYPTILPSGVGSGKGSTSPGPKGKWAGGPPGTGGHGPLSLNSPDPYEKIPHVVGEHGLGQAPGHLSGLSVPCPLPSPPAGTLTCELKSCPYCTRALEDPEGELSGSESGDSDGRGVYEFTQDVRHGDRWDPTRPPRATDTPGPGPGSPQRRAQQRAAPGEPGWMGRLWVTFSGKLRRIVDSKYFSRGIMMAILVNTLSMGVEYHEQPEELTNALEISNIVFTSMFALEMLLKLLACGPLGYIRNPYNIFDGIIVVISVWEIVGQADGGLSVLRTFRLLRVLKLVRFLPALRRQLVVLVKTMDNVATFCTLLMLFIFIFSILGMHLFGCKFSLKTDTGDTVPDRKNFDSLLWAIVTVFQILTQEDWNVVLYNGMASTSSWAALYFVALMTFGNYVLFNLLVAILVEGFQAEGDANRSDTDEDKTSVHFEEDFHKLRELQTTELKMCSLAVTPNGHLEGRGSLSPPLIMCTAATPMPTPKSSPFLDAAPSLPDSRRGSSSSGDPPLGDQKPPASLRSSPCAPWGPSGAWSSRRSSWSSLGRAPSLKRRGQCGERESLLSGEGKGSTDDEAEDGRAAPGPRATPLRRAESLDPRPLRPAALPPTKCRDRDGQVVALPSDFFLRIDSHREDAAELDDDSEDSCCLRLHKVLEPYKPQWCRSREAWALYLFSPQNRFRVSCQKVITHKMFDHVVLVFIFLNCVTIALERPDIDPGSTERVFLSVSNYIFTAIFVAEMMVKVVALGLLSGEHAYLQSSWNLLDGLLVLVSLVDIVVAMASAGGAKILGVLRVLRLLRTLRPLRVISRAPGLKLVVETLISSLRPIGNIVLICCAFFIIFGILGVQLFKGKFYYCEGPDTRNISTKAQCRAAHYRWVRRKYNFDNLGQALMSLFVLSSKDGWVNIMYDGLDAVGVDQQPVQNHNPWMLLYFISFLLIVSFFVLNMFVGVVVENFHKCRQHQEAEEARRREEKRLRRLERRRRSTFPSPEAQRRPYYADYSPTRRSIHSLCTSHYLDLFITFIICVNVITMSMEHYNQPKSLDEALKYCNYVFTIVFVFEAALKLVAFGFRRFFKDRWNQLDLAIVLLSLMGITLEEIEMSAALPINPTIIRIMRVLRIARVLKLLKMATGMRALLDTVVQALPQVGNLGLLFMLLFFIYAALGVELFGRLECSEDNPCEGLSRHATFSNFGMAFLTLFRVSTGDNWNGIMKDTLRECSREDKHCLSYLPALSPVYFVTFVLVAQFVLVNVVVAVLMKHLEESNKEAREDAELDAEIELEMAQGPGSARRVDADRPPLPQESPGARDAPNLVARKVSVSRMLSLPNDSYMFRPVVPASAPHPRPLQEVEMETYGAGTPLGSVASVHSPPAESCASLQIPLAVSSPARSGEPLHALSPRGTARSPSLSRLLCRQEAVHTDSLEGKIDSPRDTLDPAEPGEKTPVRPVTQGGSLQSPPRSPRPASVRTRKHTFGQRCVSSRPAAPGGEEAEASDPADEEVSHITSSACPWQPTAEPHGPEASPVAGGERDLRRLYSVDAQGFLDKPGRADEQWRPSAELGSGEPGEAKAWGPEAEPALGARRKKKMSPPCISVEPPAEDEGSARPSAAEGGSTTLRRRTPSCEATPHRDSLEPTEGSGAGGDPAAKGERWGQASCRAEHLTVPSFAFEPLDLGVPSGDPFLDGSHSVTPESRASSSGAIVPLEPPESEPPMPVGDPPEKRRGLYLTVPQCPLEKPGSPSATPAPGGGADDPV

[7] = Luminescence Cell-Based Dose Retest to Confirm Inhibitors of Cancer Stem Cells. [Related pubchem assays (depositor defined):AID2717, AID2721]; assay type: functional; conditions: Homo sapiens
[8] = molecular target: Serine/threonine-protein phosphatase PP1-alpha catalytic subunit (Homo sapiens, UniProt P62136); experiment: PP1 phosphatase inhibitors, dose response, biochemical, fluorescence (AID 2403);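 note: phosphatase turnover of OMFP into fluorescent 3-O-methylfluorescein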
Sequence of Serine/threonine-protein phosphatase PP1-alpha catalytic subunit (P62136 whole entry): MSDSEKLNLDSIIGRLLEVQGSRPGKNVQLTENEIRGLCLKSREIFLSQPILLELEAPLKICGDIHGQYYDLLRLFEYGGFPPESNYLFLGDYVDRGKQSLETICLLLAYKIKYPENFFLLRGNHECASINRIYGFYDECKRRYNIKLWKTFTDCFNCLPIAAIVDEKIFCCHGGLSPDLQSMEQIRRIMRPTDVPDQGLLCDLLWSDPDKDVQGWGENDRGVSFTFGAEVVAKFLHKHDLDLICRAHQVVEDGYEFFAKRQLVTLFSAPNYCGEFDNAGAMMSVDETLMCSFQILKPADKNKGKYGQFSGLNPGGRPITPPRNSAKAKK

[9] = molecular target: T2, Serine/threonine-protein phosphatase (Homo sapiens, UniProt Q9BPW0); experiment: Counterscreen for inhibitors of PP1: fluorescence-based biochemical high throughput dose response assay to identify inhibitors of Protein Phosphatase 5 (PP5). [Related pubchem assays: 2034 (Summary (PP5 inhibitors)), 1987 (PP5 inhibitors in singlate), 2235 (PP1 inhibitors in singlate)]
T2 sequence (Q9BPW0 whole entry): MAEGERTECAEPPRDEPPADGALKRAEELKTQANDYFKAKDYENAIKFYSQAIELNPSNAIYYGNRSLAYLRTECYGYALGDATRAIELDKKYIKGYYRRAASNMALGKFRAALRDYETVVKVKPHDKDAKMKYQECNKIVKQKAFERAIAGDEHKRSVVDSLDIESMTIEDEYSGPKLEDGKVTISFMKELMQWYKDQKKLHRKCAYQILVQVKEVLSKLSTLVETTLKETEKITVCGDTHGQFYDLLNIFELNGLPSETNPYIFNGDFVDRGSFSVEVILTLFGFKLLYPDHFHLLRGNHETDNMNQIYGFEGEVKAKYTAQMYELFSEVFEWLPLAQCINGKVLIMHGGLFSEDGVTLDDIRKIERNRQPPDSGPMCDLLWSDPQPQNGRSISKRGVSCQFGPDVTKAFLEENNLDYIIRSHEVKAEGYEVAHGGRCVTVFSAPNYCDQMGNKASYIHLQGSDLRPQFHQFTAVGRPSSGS

Coagulation factor XII = molecular target: T3, Coagulation factor XII (Homo sapiens, UniProt P00748); assay type: functional;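 note: activated factor XIIa alpha cleaving a fluorogenic AMC peptide substrate; inhibitor potency from loss of enzyme activity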
T3 sequence (P00748 whole entry): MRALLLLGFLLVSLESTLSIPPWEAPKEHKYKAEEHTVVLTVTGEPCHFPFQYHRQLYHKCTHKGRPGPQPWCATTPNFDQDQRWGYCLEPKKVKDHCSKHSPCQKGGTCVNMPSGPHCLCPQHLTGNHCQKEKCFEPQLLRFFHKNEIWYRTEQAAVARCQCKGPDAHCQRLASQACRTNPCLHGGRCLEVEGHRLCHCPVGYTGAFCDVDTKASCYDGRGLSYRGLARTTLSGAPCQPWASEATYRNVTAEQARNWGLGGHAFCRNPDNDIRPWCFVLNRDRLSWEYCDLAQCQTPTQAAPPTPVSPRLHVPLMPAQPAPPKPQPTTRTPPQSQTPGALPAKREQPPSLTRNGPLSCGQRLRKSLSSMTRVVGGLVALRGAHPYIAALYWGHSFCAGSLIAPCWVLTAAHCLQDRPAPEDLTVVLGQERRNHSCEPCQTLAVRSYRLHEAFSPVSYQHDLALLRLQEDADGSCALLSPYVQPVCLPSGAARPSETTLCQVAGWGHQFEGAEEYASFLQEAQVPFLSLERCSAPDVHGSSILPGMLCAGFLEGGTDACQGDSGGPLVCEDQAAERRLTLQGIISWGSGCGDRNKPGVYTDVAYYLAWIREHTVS

[10] = molecular target: G-protein coupled receptor 55 (Homo sapiens, UniProt Q9Y2T6); experiment: GPR55 antagonists blocking LPI-driven arrestin recruitment, primary screen, imaging, U2OS, beta-arrestin-GFP, LPI agonist (AID 2013); assay type: functional;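 note: antagonist potency measured as reduced agonist-driven arrestin aggregation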
[11] = molecular target: T4, Polyadenylate-binding protein 1 (Homo sapiens, UniProt P11940); experiment: PABP1 MLLE–PAM2 interaction inhibitors, dose response, miRNA deadenylation inhibitor project, biochemical, fluorescence polarization, Cy5-PAM2 peptide, secondary (AID 602260); assay type: functional; conditions: read-out: IC50_Mean
T4 sequence (P11940 whole entry): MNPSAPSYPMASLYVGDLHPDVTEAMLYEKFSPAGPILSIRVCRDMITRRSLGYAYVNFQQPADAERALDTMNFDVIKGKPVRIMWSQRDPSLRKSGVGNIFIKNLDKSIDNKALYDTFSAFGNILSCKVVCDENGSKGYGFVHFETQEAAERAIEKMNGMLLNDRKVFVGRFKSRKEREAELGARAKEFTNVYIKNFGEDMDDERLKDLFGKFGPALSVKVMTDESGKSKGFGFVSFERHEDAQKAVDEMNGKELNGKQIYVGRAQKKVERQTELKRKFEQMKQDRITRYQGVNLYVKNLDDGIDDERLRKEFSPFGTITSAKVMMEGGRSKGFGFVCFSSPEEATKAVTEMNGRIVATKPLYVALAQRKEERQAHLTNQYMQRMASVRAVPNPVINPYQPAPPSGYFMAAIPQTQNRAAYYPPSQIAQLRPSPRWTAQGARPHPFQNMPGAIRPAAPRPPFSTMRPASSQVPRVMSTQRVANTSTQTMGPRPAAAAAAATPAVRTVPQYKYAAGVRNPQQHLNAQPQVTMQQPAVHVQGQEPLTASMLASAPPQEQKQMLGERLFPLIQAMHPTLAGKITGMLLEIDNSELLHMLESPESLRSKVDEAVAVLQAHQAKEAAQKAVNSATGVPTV

[12] = molecular target: T4, Polyadenylate-binding protein 1; experiment: PABP1 MLLE–PAM2 binding inhibitor potency, dose response, biochemical, fluorescence polarization, FITC-PAM2 peptide (AID 602259); assay type: functional; conditions: read-out: IC50_Mean
[13] = A Cell Based Secondary Assay To Explore Cytotoxicity of Compounds that Sensitize Mycobacterium Tuberculosis to Beta-Lactam Antibiotics.; assay type: functional
cells [14] = assay type: functional, cell-based
[15] = molecular target: T5, Trace amine-associated receptor 1 (Homo sapiens, UniProt Q96RJ0); experiment: Fluorescence-based cell-based high throughput dose response assay to identify agonists of the human trace amine associated receptor 1 (TAAR1).; assay type: functional
T5 sequence (Q96RJ0 whole entry): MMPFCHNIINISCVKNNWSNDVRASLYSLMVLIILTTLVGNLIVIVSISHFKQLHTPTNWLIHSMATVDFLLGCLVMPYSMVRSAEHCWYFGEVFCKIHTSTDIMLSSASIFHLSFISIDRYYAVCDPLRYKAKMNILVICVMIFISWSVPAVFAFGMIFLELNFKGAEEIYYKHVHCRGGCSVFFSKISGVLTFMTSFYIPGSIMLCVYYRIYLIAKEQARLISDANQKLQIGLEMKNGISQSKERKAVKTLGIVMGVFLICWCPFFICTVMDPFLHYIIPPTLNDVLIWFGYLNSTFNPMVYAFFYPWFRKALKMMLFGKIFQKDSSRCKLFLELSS

[16] = molecular target: T5, Trace amine-associated receptor 1; experiment: Counterscreen for agonists of the human trace amine associated receptor 1 (hTAAR1): Fluorescence-based cell-based high throughput dose response assay to identify hTAAR1 agonist that also desensitize TAAR1 receptor response.; assay type: functional
cells [17] = assay type: functional, cell-based; remark: listed apart in the source
[18] = molecular target: Heat shock cognate 71 kDa protein (Homo sapiens, UniProt P11142); experiment: In Vitro Hsc70 Dose Response Fluorescence Polarization Assay. [Related pubchem assays: 1072 ]
Sequence of Heat shock cognate 71 kDa protein (P11142 whole entry): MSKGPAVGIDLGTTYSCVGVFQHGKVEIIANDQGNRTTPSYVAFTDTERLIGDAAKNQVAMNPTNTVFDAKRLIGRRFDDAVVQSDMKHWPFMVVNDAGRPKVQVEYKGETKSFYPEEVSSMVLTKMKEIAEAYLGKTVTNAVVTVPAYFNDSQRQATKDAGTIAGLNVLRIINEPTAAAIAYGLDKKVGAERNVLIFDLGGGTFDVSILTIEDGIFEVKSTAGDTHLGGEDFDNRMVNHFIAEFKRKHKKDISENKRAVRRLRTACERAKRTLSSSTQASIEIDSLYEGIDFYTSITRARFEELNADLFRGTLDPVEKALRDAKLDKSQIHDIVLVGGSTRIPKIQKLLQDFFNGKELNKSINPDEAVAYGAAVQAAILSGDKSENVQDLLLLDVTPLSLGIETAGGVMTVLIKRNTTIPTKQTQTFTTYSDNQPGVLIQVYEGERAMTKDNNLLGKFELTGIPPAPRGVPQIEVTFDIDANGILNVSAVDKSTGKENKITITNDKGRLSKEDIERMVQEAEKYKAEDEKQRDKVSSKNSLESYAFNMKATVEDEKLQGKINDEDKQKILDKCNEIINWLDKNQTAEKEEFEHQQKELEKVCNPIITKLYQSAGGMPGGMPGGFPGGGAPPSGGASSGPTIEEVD

[19] = molecular target: Heat shock 70 kDa protein 1A (Homo sapiens, UniProt P0DMV8); experiment: Hsp70 inhibitors, SAR follow-up, biochemical, fluorescence polarization (AID 1072)
Sequence of Heat shock 70 kDa protein 1A (P0DMV8 whole entry): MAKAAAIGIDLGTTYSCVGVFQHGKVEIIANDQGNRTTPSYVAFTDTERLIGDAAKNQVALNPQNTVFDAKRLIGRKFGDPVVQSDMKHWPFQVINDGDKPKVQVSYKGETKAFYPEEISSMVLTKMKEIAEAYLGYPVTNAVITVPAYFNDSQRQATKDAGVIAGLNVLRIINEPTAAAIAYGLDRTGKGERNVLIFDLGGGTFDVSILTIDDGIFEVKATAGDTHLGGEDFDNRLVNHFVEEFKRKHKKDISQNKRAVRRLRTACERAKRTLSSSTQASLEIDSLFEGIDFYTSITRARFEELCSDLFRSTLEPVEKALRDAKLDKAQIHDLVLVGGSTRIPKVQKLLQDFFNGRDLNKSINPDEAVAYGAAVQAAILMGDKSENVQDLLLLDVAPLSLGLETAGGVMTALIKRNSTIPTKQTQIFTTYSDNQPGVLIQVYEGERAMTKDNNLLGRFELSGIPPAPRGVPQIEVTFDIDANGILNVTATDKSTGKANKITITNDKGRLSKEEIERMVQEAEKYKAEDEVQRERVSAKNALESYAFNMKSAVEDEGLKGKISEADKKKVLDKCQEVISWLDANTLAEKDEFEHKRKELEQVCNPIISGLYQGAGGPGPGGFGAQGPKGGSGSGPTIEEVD

[20] = inhibitors of intracellular T. cruzi replication, confirmation, NIH3T3 host cells, beta-gal luminescence (AID 2044); assay type: functional, cell-based;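 note: intracellular parasites grown in NIH/3T3 mouse fibroblasts as host cells; luminescent beta-galactosidase reporter signal from transgenic T. cruzi replicating inside host cells; inhibitors lower the luminescence signal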
[21] = cytotoxicity toward NIH3T3 fibroblasts, dose response, counter-screen, cell-based, ATP luminescence, mouse fibroblasts (AID 2010); assay type: functional;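 note: cells exposed to compound for about 90 hours before reading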
Cytochrome P450 2D6 = Cytochrome P450 2D6 (Homo sapiens, UniProt P10635);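 note: CYP2D6 member of a cytochrome P450 panel assay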
Sequence of Cytochrome P450 2D6 (P10635 whole entry): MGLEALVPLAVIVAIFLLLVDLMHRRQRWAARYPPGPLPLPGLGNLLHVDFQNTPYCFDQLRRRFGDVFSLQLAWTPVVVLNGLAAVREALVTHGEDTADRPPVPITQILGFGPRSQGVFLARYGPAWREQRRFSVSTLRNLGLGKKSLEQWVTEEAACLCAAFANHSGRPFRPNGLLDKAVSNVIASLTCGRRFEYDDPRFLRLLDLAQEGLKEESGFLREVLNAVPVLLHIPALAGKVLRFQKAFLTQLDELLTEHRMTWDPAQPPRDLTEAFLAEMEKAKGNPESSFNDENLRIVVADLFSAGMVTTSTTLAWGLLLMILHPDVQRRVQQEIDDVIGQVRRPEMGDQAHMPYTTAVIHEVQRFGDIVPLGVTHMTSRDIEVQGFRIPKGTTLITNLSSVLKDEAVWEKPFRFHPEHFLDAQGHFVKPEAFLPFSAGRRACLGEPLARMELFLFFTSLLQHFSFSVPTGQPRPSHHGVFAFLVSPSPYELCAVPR

[22] = tested on: Streptococcus sp. 'group A'; experiment: growth inhibition of control SK(-) GAS strain, dose response, counter-screen for streptokinase expression inhibitor project, luminescence, kanamycin, BacTiterGlo, confirmation (AID 1900); assay type: functional, organism-based
Streptokinase A = molecular target: T6, Streptokinase A (Streptococcus pyogenes serotype M1, UniProt P10520); experiment: S. pyogenes streptokinase expression inhibitors, potency, dose response, plasminogen activation absorbance, OD405 (AID 1914); assay type: functional, Streptococcus pyogenes M1 GAS;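 note: secreted streptokinase activity via plasminogen activation per viability signal from cell pellet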
T6 sequence (P10520 whole entry): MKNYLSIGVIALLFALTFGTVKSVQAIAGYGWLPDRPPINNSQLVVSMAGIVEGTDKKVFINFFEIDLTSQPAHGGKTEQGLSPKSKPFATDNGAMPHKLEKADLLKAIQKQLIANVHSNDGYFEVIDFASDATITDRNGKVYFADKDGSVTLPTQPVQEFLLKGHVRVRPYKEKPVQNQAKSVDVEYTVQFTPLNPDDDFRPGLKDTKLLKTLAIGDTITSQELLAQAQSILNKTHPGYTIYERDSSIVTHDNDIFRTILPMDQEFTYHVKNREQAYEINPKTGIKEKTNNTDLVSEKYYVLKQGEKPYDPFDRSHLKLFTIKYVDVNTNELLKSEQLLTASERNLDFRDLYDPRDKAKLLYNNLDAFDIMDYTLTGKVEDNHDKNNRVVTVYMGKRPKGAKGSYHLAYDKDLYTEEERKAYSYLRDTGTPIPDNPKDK

Streptococcus = experiment: Group A Streptococcus viability loss, dose response, counter-screen for streptokinase expression inhibitor project, luminescence, BacTiterGlo (AID 1915); assay type: functional, organism-based;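 note: potency for reduction of bacterial viability or growth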

Structure (SMILES): Cc1sc2nc3c(SC(C)C(=O)O)cc(C(=O)c4ccccc4O)cn3c(=O)c2c1C (stereo unspecified)
- CC50 [1]: 42.7 µM (active)
- EC50 [2]: 25.1 µM (not active)
- EC50 [3]: 14.7 µM (not active)
- IC50 (Aminopeptidase N): 57.8 µM (active)
- EC50 [4]: 25.9 µM (not active)
- IC50 (cells [5]): 41.5 µM (active)

Structure (SMILES): COc1ccc(C(=O)/C=C/c2cn(CC(O)CN3CCN(C)CC3)c3ccccc23)cc1OC (stereo unspecified)
- EC50 (Troponin, cardiac muscle): 12.3 µM (inactive)

Structure (SMILES): CCC(c1nnnn1Cc1ccco1)N1CCN(c2cc(Cl)ccc2C)CC1 (stereo unspecified)
- EC50 [6]: 4.19 µM (active)
- AC50 [7]: 3.44 µM (active)

Structure (SMILES): CC1CC(NC(=O)C2C3CCC(O3)C2C(=O)O)CC(C)(C)C1 (stereo unspecified)
- IC50 [8]: 2.85 µM (active)
- IC50 [9]: 2.78 µM (active)
- IC50 (Coagulation factor XII): > 50 µM (inactive)

Structure (SMILES): Cn1nccc1NC(=O)Nc1cccc(Cl)c1Cl
- EC50 (Troponin, cardiac muscle): > 71.4 µM (inactive)

Structure (SMILES): O=C1Nc2ccccc2N2CCCC12 (stereo unspecified)
- IC50 [8]: > 67 µM (not active)
- IC50 [9]: > 2.48 µM (active)

Structure (SMILES): N#C/C(=C\c1ccccc1[N+](=O)[O-])C(=O)NCc1ccccc1
- IC50 [10]: 3.09 µM (active)
- IC50 [11]: > 66 µM (inactive)
- IC50 [12]: > 66 µM (inactive)

Structure (SMILES): CCn1cc(C(=O)O)c(=O)c2cc(F)c(N/N=C/c3ccccc3)cc21
- CC50 [13]: 34.1 µM (active)
- IC50 (cells [14]): > 29.9 µM (inactive)
- EC50 [15]: 19.7 µM (inactive)
- IC50 [16]: 1.68 µM (active)
- EC50 (cells [17]): > 29.9 µM (inactive)

Structure (SMILES): CC1C2C=CC1C(c1c3ccc(=O)c(O)c-3oc3c(O)c(O)ccc13)C2C(=O)O (stereo unspecified)
- IC50 [18]: 5.58 µM (active)
- IC50 [19]: 0.634 µM (active)

Structure (SMILES): O=C(Nc1ccccc1-c1nnc(SCc2ccc(Cl)cc2)o1)c1ccccc1
- EC50 [20]: 2.22 µM (active)
- EC50 [21]: > 60 µM (not active)
- EC50 [6]: 6.46 µM (active)

Structure (SMILES): COc1ccc(CN(CCC#N)C(=S)NC(=O)c2ccccc2)cc1
- CC50 [13]: 39 µM (active)
- AC50 (Cytochrome P450 2D6): 25.1 µM (inconclusive)

Structure (SMILES): COc1ccccc1Sc1nc(-c2ccccn2)ncc1OC
- EC50 [22]: 27.1 µM (active)
- IC50 [8]: 7.52 µM (active)
- EC50 (Streptokinase A): > 150 µM (not active)
- IC50 [9]: 66.8 µM (not active)
- EC50 (Streptococcus): > 150 µM (not active)

Structure (SMILES): Cc1cc(F)ccc1NCC(=O)Nc1ccc(Br)cc1C
- CC50 [13]: > 40 µM (active)
